These results are taken from patent publication EP3250188B1, “PHARMACEUTICAL COMPOSITION COMPRISING APREPITANT AND METHOD FOR THE PREPARATION THEREOF” (Pharmathen S.A., priority 2015, dated 2016).

The structures appear in SMILES notation. In brackets after ≈: the same amount, converted by molar mass. Like-named read-outs stand apart in the source and are kept apart here.

For data set [1] the following is noted: cited from earlier work.
Data set [2] can be described thus: Solubility study in FeSSIF (HPLC after 30 min stirring and centrifugation). In kind it is physicochemical. The method, then: For the solubility study, a quantity of the solid dispersion equivalent to 10.0 mg of Aprepitant was dissolved in a 100ml volumetric flask with dissolution medium of fed state simulated intestinal fluid (FeSSIF) to a concentration of 0.1mg/ml. The solution was magnetically stirred for 30min and before injected in the HPLC it was centrifuged at 4000rpm for 5min. Finally the drug concentration was equated to the drug solubility. Table 1: Solubility of solid dispersion prepared according to example 1
Table 8: Solubilities of solid dispersions prepared by melt mixing

Data set [3] is described as follows: Dissolution, USP type II apparatus (paddles), 50 rpm, FeSSIF. In kind it is physicochemical. The method, then: The rate and extent of drug dissolution was studied using a USP type II apparatus (paddles) at 50 rpm. The dissolution medium was a FeSSIF with pH 5.0. Table 2: Dissolution results of amorphous solid dispersions for different ratios of API to polymer compared with that of Aprepitant alone. The dissolution rate of the solid dispersions that present the best solubility was studied in USP II apparatus, 50rpm, FeSSIF medium.

Turning to `C[C@@H](O[C@H]1OCCN(Cc2nc(=O)[nH][nH]2)[C@H]1c1ccc(F)cc1)c1cc(C(F)(F)F)cc(C(F)(F)F)c1` [Aprepitant], the solubility (usually the concentration that dissolves in the medium under given conditions) in data set [1] (in acetonitrile) is “slightly soluble”; in data set [1] (in ethanol), “sparingly soluble”; in data set [1] (in isopropyl acetate) it was “sparingly soluble”; in data set [1] (in water), “practically insoluble”. The amount in solution in data set [2] (fed state simulated intestinal fluid (FeSSIF), fessif, thermodynamic from solid, solid dispersions prepared by spray drying, nominal concentration 0.1mg/ml, stirred 30min) (solubility at 30 min) came to 50 µg/mL (≈ 93.6 µM). The “Solubility in FeSSIF” value in data set [2] (solid dispersions prepared by melt mixing at the stated temperature) was 50 µg/mL (≈ 93.6 µM). Further, the “% release” value in data set [3] (15 min, FeSSIF medium, melt mixed solid dispersions) is given as 17,37%; in data set [3] (15 min, FeSSIF pH 5.0, spray dried solid dispersions), 17,37%; in data set [3] (30 min, FeSSIF medium, melt mixed solid dispersions), 38,74%; in data set [3] (30 min, FeSSIF pH 5.0, spray dried solid dispersions) it was 38,74%; in data set [3] (45 min, FeSSIF medium, melt mixed solid dispersions), 45,34%; in data set [3] (45 min, FeSSIF pH 5.0, spray dried solid dispersions), 45,34%. Also, the “% release” value in data set [3] (60 min, FeSSIF medium, melt mixed solid dispersions) was 47,38%; in data set [3] (60 min, FeSSIF pH 5.0, spray dried solid dispersions), 47,38%.
